One may read the EC50 as the concentration needed to bring the measured effect to its halfway point.

Each structure is given as a SMILES string. Read-outs that look alike come from different tables or passages of the source.

In the experiment the test system is HCV pseudoparticles (genotype 1a HCV E1 and E2 envelope, H77C isolate). As to the kind of experiment: HCV pseudoparticle infection assay (luciferase reporter, entry into Huh7 cells). Type of experiment: cell-based. Conditions: Hepatitis C virus, Huh-7, 48 h.
The mark [1] stands for this setting: read-out: Activity Range (EC50).

Regarding `FC(F)(F)COc1nc2nc(n1)Nc1cnn(c1)CCOCCOCCOc1ccc(cc1)CN2` [Example 2002], the EC50 under setting [1] lay within 0.1 to 500 nM. With `FC(F)(F)COc1nc2nc(n1)Nc1cnn(c1)CCNCCCOc1ccc(cc1)CN2` [Example 2006], under setting [1], the EC50 was 0.1 to 500 nM.

Consider `CC(C)(C)NC(=O)N1CCCOc2ccc(cc2)CNc2nc(nc(OCC(F)(F)F)n2)Nc2cnn(c2)CC1` [Example 2007], for which the response was half-maximal at 105 nM (EC50). Also, under setting [1], the EC50 lay in the range of 0.1 to 500 nM.

On to `FC(F)(F)COc1nc2nc(n1)Nc1cnn(c1)CCCCCCOc1ccc(cc1)CN2` [Example 3001], for which the EC50 under setting [1] lay within 0.1 to 500 nM.

(Values after patent US8933066B2, “Compounds for the treatment of hepatitis C” (priority 2011, dated 2015).)
